For one test, the target named is Beta-lactamase (Staphylococcus aureus, UniProt P00807). The experiment in a line: Inhibition of class A beta-lactamase derived from Staphylococcus aureus strain PC1.
The target of the next test is Beta-lactamase TEM (Enterobacter cloacae, UniProt Q6W9J1). The experiment in a line: Inhibition of class A TEM-1 beta-lactamase derived from Enterobacter cloacae.
Test [1] concerns the target T1, Beta-lactamase class C (Enterobacter cloacae, UniProt Q59401). The experiment in a line: Inhibition of class C beta-lactamase derived from Enterobacter cloacae P99.
Test [2] deals with T1, Beta-lactamase class C. The experiment in a line: Inhibition of GC1 extended spectrum class C beta-lactamase. More on the design: species or system Enterobacter cloacae GC1.
Test [3] addresses T1, Beta-lactamase class C. The experiment in a line: The compound was evaluated for inhibition against Class C beta-lactamase derived from Enterobacter cloacae P99.
The target in test [4] is T1, Beta-lactamase class C. The experiment in a line: The compound was evaluated for inhibition against the GC1 extended spectrum Class C beta-lactamase.

Drawing on ChEMBL document CHEMBL1133346, “The synthesis and evaluation of 3-substituted-7-(alkylidene)cephalosporin sulfones as beta-lactamase inhibitors” (Bioorg Med Chem Lett, 2000), this text covers IC50 for 23 molecules.

Molecules are shown by their SMILES.

Chain of Beta-lactamase (P00807 whole entry): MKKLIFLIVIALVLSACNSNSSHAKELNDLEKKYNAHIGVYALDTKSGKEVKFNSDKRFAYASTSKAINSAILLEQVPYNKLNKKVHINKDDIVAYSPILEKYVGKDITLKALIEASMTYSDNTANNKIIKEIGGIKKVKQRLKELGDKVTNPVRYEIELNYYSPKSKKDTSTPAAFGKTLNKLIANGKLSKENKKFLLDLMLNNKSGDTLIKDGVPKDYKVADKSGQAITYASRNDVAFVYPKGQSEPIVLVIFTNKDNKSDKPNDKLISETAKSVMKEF
Chain of Beta-lactamase TEM (Q6W9J1 whole entry): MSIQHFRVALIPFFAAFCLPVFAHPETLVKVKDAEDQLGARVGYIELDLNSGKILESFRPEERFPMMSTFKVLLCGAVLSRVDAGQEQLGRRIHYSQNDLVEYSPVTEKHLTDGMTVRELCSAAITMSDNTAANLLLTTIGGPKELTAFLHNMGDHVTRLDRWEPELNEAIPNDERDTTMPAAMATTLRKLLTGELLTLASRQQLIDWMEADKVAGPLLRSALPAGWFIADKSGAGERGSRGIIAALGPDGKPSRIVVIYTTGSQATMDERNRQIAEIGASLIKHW
T1 sequence (Q59401 whole entry): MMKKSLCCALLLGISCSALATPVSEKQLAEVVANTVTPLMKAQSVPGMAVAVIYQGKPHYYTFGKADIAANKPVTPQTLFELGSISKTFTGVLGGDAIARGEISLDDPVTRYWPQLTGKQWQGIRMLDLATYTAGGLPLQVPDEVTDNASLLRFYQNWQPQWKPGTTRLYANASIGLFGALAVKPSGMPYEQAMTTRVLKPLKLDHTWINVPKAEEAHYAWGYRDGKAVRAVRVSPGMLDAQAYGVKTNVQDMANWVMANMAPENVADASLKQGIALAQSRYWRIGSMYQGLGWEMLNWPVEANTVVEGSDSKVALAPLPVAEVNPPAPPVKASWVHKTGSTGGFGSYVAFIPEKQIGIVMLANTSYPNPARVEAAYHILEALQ

For orientation: IC50 means the midpoint of a concentration-inhibition curve. For `N#CCC1=C(C(=O)O)N2C(=O)/C(=C/c3ccccn3)C2S(=O)(=O)C1` (stereo unspecified), the IC50 against Beta-lactamase came to 8900 nM; against Beta-lactamase TEM it was 5600 nM; against Beta-lactamase class C [1] it was 900 nM.
On to `COC(=O)/C=C/C1=C(C(=O)O)N2C(=O)/C(=C/c3ccccn3)C2S(=O)(=O)C1` (stereo unspecified), for which the IC50 at Beta-lactamase amounted to 300 nM; on Beta-lactamase TEM, 20 nM; against Beta-lactamase class C [2], 300 nM; against Beta-lactamase class C [1] it was 200 nM.
As for `CC(C)(C)OC(=O)/C=C/C1=C(C(=O)O)N2C(=O)/C(=C/c3ccccn3)C2S(=O)(=O)C1` (stereo unspecified), the IC50 came out at 240000 nM at Beta-lactamase and 1480 nM at Beta-lactamase class C [1].
On to `N#C/C=C/C1=C(C(=O)O)N2C(=O)/C(=C/c3ccccn3)C2S(=O)(=O)C1` (stereo unspecified), for which the IC50 on Beta-lactamase is 720 nM; against Beta-lactamase class C [3], 10 nM; against Beta-lactamase TEM, 14 nM; on Beta-lactamase class C [4], 12 nM.
Turning to `NC(=O)OCC1=C(C(=O)O)N2C(=O)/C(=C/c3ccccn3)C2S(=O)(=O)C1` (stereo unspecified), the IC50 against Beta-lactamase was 7900 nM; against Beta-lactamase TEM, 10500 nM; at Beta-lactamase class C [2], 260 nM; on Beta-lactamase class C [1], 2300 nM.
Turning to `C=C1C(/C=C/C(=O)OC(C)(C)C)=C(C(=O)O)N2C(=O)/C(=C/c3ccccn3)C2S1(=O)=O` (stereo unspecified), the IC50 is 150000 nM against Beta-lactamase class C [2] and 440000 nM on Beta-lactamase class C [1].
In the case of `CCOC(=O)CNC(=O)OCC1=C(C(=O)O)N2C(=O)/C(=C/c3ccccn3)C2S(=O)(=O)C1` (stereo unspecified), the IC50 on Beta-lactamase amounted to 33400 nM; against Beta-lactamase TEM, 260000 nM; at Beta-lactamase class C [2], 45000 nM; against Beta-lactamase class C [1] it was 400 nM.
Taken in the same sequence, the figures for `COCC1=C(C(=O)O)N2C(=O)/C(=C/c3ccccn3)C2S(=O)(=O)C1` (stereo unspecified) were 28000 nM, 700 nM, 1200 nM and 700 nM.
For the molecule `O=C(Cc1ccc(O)c(O)c1)OCC1=C(C(=O)O)N2C(=O)/C(=C/c3ccccn3)C2S(=O)(=O)C1` (stereo unspecified), the values for the half-maximal inhibitory concentration (IC50) against Beta-lactamase, on Beta-lactamase TEM and against Beta-lactamase class C [1] were 67000 nM, 17400 nM and 3600 nM, respectively.
Taken in the same sequence, the figures for `NC(=O)/C=C/C1=C(C(=O)O)N2C(=O)/C(=C/c3cccs3)C2S(=O)(=O)C1` (stereo unspecified) were 154000 nM, 900 nM and 290 nM.
In the case of `O=C(O)C1=C(/C=C/c2cccc[n+]2[O-])CS(=O)(=O)[C@@H]2/C(=C\c3ccccn3)C(=O)N12`, the IC50 against Beta-lactamase amounted to 8600 nM; at Beta-lactamase TEM it was 6 nM; against Beta-lactamase class C [2], 100 nM; on Beta-lactamase class C [1] it was 600 nM.
Turning to `C=C/C=C/C1=C(C(=O)O)N2C(=O)/C(=C/c3ccccn3)C2S(=O)(=O)C1` (stereo unspecified), the IC50 against Beta-lactamase was 75000 nM; at Beta-lactamase TEM, 68000 nM; against Beta-lactamase class C [1], 24000 nM.
In the same order, the values of `N#CC1=C(C(=O)O)N2C(=O)/C(=C/c3ccccn3)C2S(=O)(=O)C1` (stereo unspecified) are 280000 nM, 2340 nM and 29 nM.
Taken in the same sequence, the figures for `O=C(O)/C=C/C1=C(C(=O)O)N2C(=O)/C(=C/c3ccccn3)C2S(=O)(=O)C1` (stereo unspecified) were 31000 nM, 2500 nM and 310 nM.
In the case of `COC(=O)/C(Cl)=C/C1=C(C(=O)O)N2C(=O)/C(=C/c3ccccn3)C2S(=O)(=O)C1` (stereo unspecified), the IC50 against Beta-lactamase is 1400 nM; at Beta-lactamase TEM it was 70 nM; on Beta-lactamase class C [2] it was 180 nM; on Beta-lactamase class C [1] it was 900 nM.
Turning to `C=C1C(/C=C/C(=O)OC)=C(C(=O)O)N2C(=O)/C(=C/c3ccccn3)C2S1(=O)=O` (stereo unspecified), the IC50 at Beta-lactamase stood at 6000 nM; at Beta-lactamase TEM, 2900 nM; on Beta-lactamase class C [2], 60 nM; against Beta-lactamase class C [1], 30 nM.
In the same order, the values of `NC(=O)/C=C/C1=C(C(=O)O)N2C(=O)/C(=C/c3ccccn3)C2S(=O)(=O)C1` (stereo unspecified) are 100 nM, 90 nM, 10 nM and 26 nM.
In the same order, the values of `O=C(O)C1=C(/C=C/[N+](=O)[O-])CS(=O)(=O)C2/C(=C\c3ccccn3)C(=O)N12` (stereo unspecified) are 200 nM, 70 nM, 100 nM and 20 nM.
In the same order, the values of `O=C(COc1ccccc1)OCC1=C(C(=O)O)N2C(=O)/C(=C/c3ccccn3)C2S(=O)(=O)C1` (stereo unspecified) are 100000 nM, 800 nM, 130 nM and 100 nM.
Regarding `CCC(=O)OCC1=C(C(=O)O)N2C(=O)/C(=C/c3ccccn3)C2S(=O)(=O)C1` (stereo unspecified), the IC50 on Beta-lactamase came out at 15400 nM; on Beta-lactamase TEM it was 311000 nM.
As to `C=CC(=O)OCC1=C(C(=O)O)N2C(=O)/C(=C/c3ccccn3)C2S(=O)(=O)C1` (stereo unspecified), the values for the IC50 against Beta-lactamase, against Beta-lactamase class C [2] and against Beta-lactamase class C [1] were 110000 nM, 900 nM and 100 nM, respectively.
In the case of `C=C1C(/C=C/C(=O)O)=C(C(=O)O)N2C(=O)/C(=C/c3ccccn3)C2S1(=O)=O` (stereo unspecified), the IC50 against Beta-lactamase TEM amounted to 2500 nM; at Beta-lactamase class C [1], 6600 nM.
Take `O=C(O)C1=C(/C=C/c2ccccn2)CS(=O)(=O)[C@@H]2/C(=C\c3ccccn3)C(=O)N12`: the half-maximal inhibitory concentration (IC50) was found to be 4300 nM at Beta-lactamase, 200 nM against Beta-lactamase TEM and 180 nM on Beta-lactamase class C [1].
